Results published in ChEMBL document CHEMBL1177732, “Triterpene saponins from Clematis chinensis and their potential anti-inflammatory activity” (J Nat Prod, 2010).

Legend:
[1] = biological target: T1, Prostaglandin G/H synthase 2 (Homo sapiens, UniProt P35354); assay: Inhibition of COX2 by microplate reader
T1 sequence (P35354 whole entry): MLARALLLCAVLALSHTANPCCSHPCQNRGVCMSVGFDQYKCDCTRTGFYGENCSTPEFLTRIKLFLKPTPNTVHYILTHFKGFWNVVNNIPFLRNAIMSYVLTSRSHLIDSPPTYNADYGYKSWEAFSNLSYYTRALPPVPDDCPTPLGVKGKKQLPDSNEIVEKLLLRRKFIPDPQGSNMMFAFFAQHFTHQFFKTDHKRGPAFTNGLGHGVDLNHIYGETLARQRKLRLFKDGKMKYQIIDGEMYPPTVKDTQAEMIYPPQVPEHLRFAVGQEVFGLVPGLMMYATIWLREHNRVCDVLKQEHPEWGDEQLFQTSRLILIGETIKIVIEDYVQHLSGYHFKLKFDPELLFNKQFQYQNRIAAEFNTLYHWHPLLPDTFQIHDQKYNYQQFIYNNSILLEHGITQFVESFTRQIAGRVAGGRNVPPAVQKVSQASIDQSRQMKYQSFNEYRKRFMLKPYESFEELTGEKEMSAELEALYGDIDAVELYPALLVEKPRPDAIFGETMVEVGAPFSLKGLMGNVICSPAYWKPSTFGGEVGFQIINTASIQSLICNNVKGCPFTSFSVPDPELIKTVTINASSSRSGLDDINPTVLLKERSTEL

[2] = biological target: Prostaglandin G/H synthase 1 (Homo sapiens, UniProt P23219); assay: Inhibition of COX1 by microplate reader
Chain of Prostaglandin G/H synthase 1 (P23219 whole entry): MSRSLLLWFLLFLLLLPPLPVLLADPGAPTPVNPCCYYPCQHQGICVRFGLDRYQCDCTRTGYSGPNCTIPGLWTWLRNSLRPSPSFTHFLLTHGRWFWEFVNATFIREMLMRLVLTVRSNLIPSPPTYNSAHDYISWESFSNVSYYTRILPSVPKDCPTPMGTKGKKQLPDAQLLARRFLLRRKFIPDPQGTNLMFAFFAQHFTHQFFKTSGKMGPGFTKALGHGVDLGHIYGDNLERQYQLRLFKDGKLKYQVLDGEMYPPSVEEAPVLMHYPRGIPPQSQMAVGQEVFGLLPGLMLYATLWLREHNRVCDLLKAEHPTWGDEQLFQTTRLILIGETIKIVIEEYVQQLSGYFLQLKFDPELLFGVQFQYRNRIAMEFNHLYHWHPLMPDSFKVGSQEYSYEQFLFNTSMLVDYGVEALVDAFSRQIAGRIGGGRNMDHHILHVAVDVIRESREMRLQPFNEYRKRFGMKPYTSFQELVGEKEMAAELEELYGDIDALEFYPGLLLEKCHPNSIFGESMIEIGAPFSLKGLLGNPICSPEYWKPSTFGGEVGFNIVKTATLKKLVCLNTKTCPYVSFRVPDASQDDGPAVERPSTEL

Row | Compound | IC50 [1] | IC50 [2]
1 | COc1ccc(/C=C/C(=O)O[C@H]2[C@H](O[C@H]3[C@H](O)[C@@H](O)[C@H](O[C@@H]4CO[C@@H](O[C@@H]5[C@@H](O)[C@H](C)O[C@@H](O[C@H]6[C@H](O[C@H]7CC[C@@]8(C)[C@@H](CC[C@]9(C)[C@@H]8CC=C8[C@@H]%10CC(C)(C)CC[C@]%10(C(=O)O[C@@H]%10O[C@H](CO[C@@H]%11O[C@H](CO)[C@@H](O[C@@H]%12O[C@@H](C)[C@H](O)[C@@H](O)[C@H]%12O)[C@H](O)[C@H]%11O)[C@@H](O)[C@H](O)[C@H]%10O)CC[C@]89C)[C@]7(C)CO)OC[C@@H](O)[C@@H]6O)[C@@H]5O)[C@H](O)[C@@H]4O)O[C@@H]3CO)O[C@H](CO)[C@@H](O)[C@@H]2O[C@@H]2O[C@H](CO[C@@H]3O[C@@H](C)[C@H](O)[C@@H](O)[C@H]3O)[C@@H](O[C@@H]3O[C@H](CO)[C@@H](O)[C@H](O)[C@H]3O)[C@H](O)[C@H]2O)cc1O [CLEMATOCHINENOSIDE C] | 6.1 µM | 6.3 µM
2 | COc1ccc(/C=C/C(=O)O[C@@H]2[C@@H](O)[C@H](O[C@H]3[C@H](O)[C@@H](O)[C@H](O[C@@H]4CO[C@@H](O[C@@H]5[C@@H](O)[C@H](C)O[C@@H](O[C@H]6[C@H](O[C@H]7CC[C@@]8(C)[C@@H](CC[C@]9(C)[C@@H]8CC=C8[C@@H]%10CC(C)(C)CC[C@]%10(C(=O)O[C@@H]%10O[C@H](CO[C@@H]%11O[C@H](CO)[C@@H](O[C@@H]%12O[C@@H](C)[C@H](O)[C@@H](O)[C@H]%12O)[C@H](O)[C@H]%11O)[C@@H](O)[C@H](O)[C@H]%10O)CC[C@]89C)[C@]7(C)CO)OC[C@@H](O)[C@@H]6O)[C@@H]5O)[C@H](O)[C@@H]4O)O[C@@H]3CO)O[C@H](CO)[C@H]2O)cc1O [CLEMATOCHINENOSIDE D] | 7.8 µM | 8.8 µM
3 | COc1ccc(/C=C/C(=O)OC[C@H]2O[C@@H](O[C@H]3[C@H](O)[C@@H](O)[C@H](O[C@@H]4CO[C@@H](O[C@@H]5[C@@H](O)[C@H](C)O[C@@H](O[C@H]6[C@H](O[C@H]7CC[C@@]8(C)[C@@H](CC[C@]9(C)[C@@H]8CC=C8[C@@H]%10CC(C)(C)CC[C@]%10(C(=O)O[C@@H]%10O[C@H](CO[C@@H]%11O[C@H](CO)[C@@H](O[C@@H]%12O[C@@H](C)[C@H](O)[C@@H](O)[C@H]%12O)[C@H](O)[C@H]%11O)[C@@H](O)[C@H](O)[C@H]%10O)CC[C@]89C)[C@]7(C)CO)OC[C@@H](O)[C@@H]6O)[C@@H]5O)[C@H](O)[C@@H]4O)O[C@@H]3CO)[C@H](O)[C@@H](O)[C@@H]2O)cc1O [CLEMATOCHINENOSIDE E] | 7.9 µM | 8.9 µM
4 | COc1ccc(/C=C/C(=O)OC[C@H]2O[C@@H](O[C@H]3[C@H](O)[C@@H](O)[C@H](O[C@@H]4CO[C@@H](O[C@@H]5[C@@H](O)[C@H](C)O[C@@H](O[C@H]6[C@H](O[C@H]7CC[C@]8(C)[C@H]9CC=C%10[C@@H]%11CC(C)(C)CC[C@]%11(C(=O)O[C@@H]%11O[C@H](CO[C@@H]%12O[C@H](CO)[C@@H](O[C@@H]%13O[C@@H](C)[C@H](O)[C@@H](O)[C@H]%13O)[C@H](O)[C@H]%12O)[C@@H](O)[C@H](O)[C@H]%11O)CC[C@@]%10(C)[C@]9(C)CC[C@H]8C7(C)C)OC[C@@H](O)[C@@H]6O)[C@@H]5O)[C@H](O)[C@@H]4O)O[C@@H]3CO)[C@H](O)[C@@H](O)[C@@H]2O)cc1O [CLEMATOCHINENOSIDE F] | 7.2 µM | 7.8 µM
5 | COc1ccc(/C=C/C(=O)O[C@H]2[C@H](O[C@H]3[C@H](O)[C@@H](O)[C@H](O[C@@H]4CO[C@@H](O[C@@H]5[C@@H](O)[C@H](C)O[C@@H](O[C@H]6[C@H](O[C@H]7CC[C@@]8(C)[C@@H](CC[C@]9(C)[C@@H]8CC=C8[C@@H]%10CC(C)(C)CC[C@]%10(C(=O)O[C@@H]%10O[C@H](CO[C@@H]%11O[C@H](CO)[C@@H](O[C@@H]%12O[C@@H](C)[C@H](O)[C@@H](O)[C@H]%12O)[C@H](O)[C@H]%11O)[C@@H](O)[C@H](O)[C@H]%10O)CC[C@]89C)[C@]7(C)CO)OC[C@@H](O)[C@@H]6O)[C@@H]5O)[C@H](O)[C@@H]4O)O[C@@H]3CO)O[C@H](CO)[C@@H](O)[C@@H]2O[C@@H]2O[C@H](CO)[C@@H](O)[C@H](O)[C@H]2O)cc1O [CLEMATOCHINENOSIDE G] | 8.9 µM | 7.5 µM
6 | C[C@@H]1O[C@@H](O[C@H]2[C@H](O)[C@@H](O)[C@H](OC[C@H]3O[C@@H](OC(=O)[C@]45CCC(C)(C)C[C@H]4C4=CC[C@@H]6[C@@]7(C)CC[C@H](O[C@@H]8OC[C@H](O)[C@H](O)[C@H]8O[C@@H]8O[C@@H](C)[C@H](O)[C@@H](O[C@@H]9OC[C@@H](O[C@@H]%10O[C@H](CO)[C@@H](O[C@@H]%11O[C@H](CO)[C@@H](O)[C@H](O)[C@H]%11O)[C@H](O)[C@H]%10O)[C@@H](O)[C@H]9O)[C@H]8O)C(C)(C)[C@@H]7CC[C@@]6(C)[C@]4(C)CC5)[C@H](O)[C@@H](O)[C@@H]3O)O[C@@H]2CO)[C@H](O)[C@H](O)[C@H]1O [CLEMATOMANDSHURICA SAPONIN C] | > 50 µM | > 50 µM
7 | C[C@@H]1O[C@@H](O[C@H]2[C@H](O)[C@@H](O)[C@H](OC[C@H]3O[C@@H](OC(=O)[C@]45CCC(C)(C)C[C@H]4C4=CC[C@@H]6[C@@]7(C)CC[C@H](O)[C@@](C)(CO)[C@@H]7CC[C@@]6(C)[C@]4(C)CC5)[C@H](O)[C@@H](O)[C@@H]3O)O[C@@H]2CO)[C@H](O)[C@H](O)[C@H]1O [KIZUTA CIRENSENOSIDE O SAPONIN K3] | > 50 µM | > 50 µM

More lines, now with the values ahead:

Row | IC50 [1] | IC50 [2] | Compound
8 | > 50 µM | > 50 µM | C[C@@H]1O[C@@H](O[C@H]2[C@H](O[C@H]3CC[C@]4(C)[C@H]5CC=C6[C@@H]7CC(C)(C)CC[C@]7(C(=O)O[C@@H]7O[C@H](CO[C@@H]8O[C@H](CO)[C@@H](O[C@@H]9O[C@@H](C)[C@H](O)[C@@H](O)[C@H]9O)[C@H](O)[C@H]8O)[C@@H](O)[C@H](O)[C@H]7O)CC[C@@]6(C)[C@]5(C)CC[C@H]4C3(C)C)OC[C@H](O)[C@@H]2O)[C@H](O)[C@H](O)[C@H]1O [HEDERASAPONIN B]
9 | > 50 µM | > 50 µM | C[C@@H]1O[C@@H](O[C@H]2[C@H](O)[C@@H](O)[C@H](OC[C@H]3O[C@@H](OC(=O)[C@]45CCC(C)(C)C[C@H]4C4=CC[C@@H]6[C@@]7(C)CC[C@H](O[C@@H]8OC[C@H](O)[C@H](O)[C@H]8O[C@@H]8O[C@@H](C)[C@H](O)[C@@H](O[C@@H]9OC[C@@H](O)[C@@H](O)[C@H]9O)[C@H]8O)C(C)(C)[C@@H]7CC[C@@]6(C)[C@]4(C)CC5)[C@H](O)[C@@H](O)[C@@H]3O)O[C@@H]2CO)[C@H](O)[C@H](O)[C@H]1O [HUZHANGOSIDE B]
10 | > 50 µM | > 50 µM | C[C@@H]1O[C@@H](O[C@H]2[C@H](O)[C@@H](O)[C@H](OC[C@H]3O[C@@H](OC(=O)[C@]45CCC(C)(C)C[C@H]4C4=CC[C@@H]6[C@@]7(C)CC[C@H](O[C@@H]8OC[C@H](O)[C@H](O)[C@H]8O[C@@H]8O[C@@H](C)[C@H](O)[C@@H](O[C@@H]9OC[C@@H](O)[C@@H](O)[C@H]9O)[C@H]8O)[C@@](C)(CO)[C@@H]7CC[C@@]6(C)[C@]4(C)CC5)[C@H](O)[C@@H](O)[C@@H]3O)O[C@@H]2CO)[C@H](O)[C@H](O)[C@H]1O [HUZHANGOSIDE D]
11 | > 50 µM | > 50 µM | C[C@@H]1O[C@@H](O[C@H]2[C@H](O[C@H]3CC[C@]4(C)[C@H]5CC=C6[C@@H]7CC(C)(C)CC[C@]7(C(=O)O[C@@H]7O[C@H](CO[C@@H]8O[C@H](CO)[C@@H](O[C@@H]9O[C@@H](C)[C@H](O)[C@@H](O)[C@H]9O)[C@H](O)[C@H]8O)[C@@H](O)[C@H](O)[C@H]7O)CC[C@@]6(C)[C@]5(C)CC[C@H]4C3(C)CO)OC[C@H](O)[C@@H]2O)[C@H](O)[C@H](O)[C@H]1O (some centres not stated) [KIZUTA SAPONIN K12]
